Results from paper PMC7763331, “First Evidence of a Protective Effect of Plant Bioactive Compounds against H2O2-Induced Aconitase Damage in Durum Wheat Mitochondria” (Antioxidants, 2020).

Assays:
DWM-aconitase = system: T1, DWM-aconitase; conditions: 100 mM Tris-HCl pH 8.0, 0.1% Triton X-100, 25 °C, 1 mM NADP+, 5 mM MnCl2; citrate 0.5–20 mM; lysed mitochondria
T1 construct: gene ACO

m-aconitase [1] = target: T2, m-aconitase (Sus scrofa, UniProt P16276); test: aconitase/isocitrate dehydrogenase coupled assay, NADPH absorbance at […] nm; assay type: biochemical; conditions: pH 8.0, 25 °C, 20 mM citrate; 10 min pre-incubation, no H2O2; activator
T2 construct: gene ACO2
T2 sequence (P16276 28-781): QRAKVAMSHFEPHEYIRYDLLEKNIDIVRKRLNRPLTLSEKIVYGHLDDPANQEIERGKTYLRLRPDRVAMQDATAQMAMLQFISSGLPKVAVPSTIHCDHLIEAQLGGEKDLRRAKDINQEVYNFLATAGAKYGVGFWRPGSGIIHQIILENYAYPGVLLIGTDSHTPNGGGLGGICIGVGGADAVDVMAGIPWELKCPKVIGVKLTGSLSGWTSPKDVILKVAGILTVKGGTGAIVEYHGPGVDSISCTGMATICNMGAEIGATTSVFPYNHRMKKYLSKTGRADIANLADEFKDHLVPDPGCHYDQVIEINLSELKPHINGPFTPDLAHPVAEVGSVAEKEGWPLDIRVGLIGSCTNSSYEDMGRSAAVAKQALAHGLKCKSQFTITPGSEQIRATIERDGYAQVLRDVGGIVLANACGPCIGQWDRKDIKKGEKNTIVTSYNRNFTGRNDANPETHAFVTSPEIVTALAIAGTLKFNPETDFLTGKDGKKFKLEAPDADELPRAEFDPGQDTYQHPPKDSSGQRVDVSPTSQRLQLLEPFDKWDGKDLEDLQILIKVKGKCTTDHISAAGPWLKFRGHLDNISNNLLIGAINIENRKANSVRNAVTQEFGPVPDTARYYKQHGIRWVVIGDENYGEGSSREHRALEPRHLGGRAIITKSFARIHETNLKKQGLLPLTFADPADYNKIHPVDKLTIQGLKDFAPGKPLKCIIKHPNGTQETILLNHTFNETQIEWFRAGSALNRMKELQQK

m-aconitase [2] = target: T2, m-aconitase; test: as above; assay type: biochemical; conditions: pH 8.0, 25 °C, 20 mM citrate; 10 min pre-incubation, no H2O2; activator, upper limit (up to about)
m-aconitase [3] = target: T2, m-aconitase; test: as above; assay type: biochemical; conditions: pH 8.0, 25 °C, 20 mM citrate; 10 min pre-incubation, no H2O2; activator, upper limit (up to about); remark: listed apart in the source

O=C(O)CC(O)(CC(=O)O)C(=O)O [citrate]
Km (DWM-aconitase): 4.8 ± 0.9 mM

O=c1cc(-c2ccc(O)cc2)oc2cc(O)cc(O)c12 [apigenin]
% activation at 50-150 μM (m-aconitase [1]): ~ 10%

COc1cc(/C=C/C(=O)O)ccc1O [ferulic acid]
% activation at 100-150 μM (m-aconitase [2]): ~ 10%

O=c1c(O)c(-c2ccc(O)c(O)c2)oc2cc(O)cc(O)c12 [quercetin]
% activation at 150 μM (m-aconitase [3]): ~ 20%
